Several values for one entry are separate records, joined by “and”; a condition that tells them apart may be missing. Equal values may be shown once. Read-outs that look alike come from different tables or passages of the source.
What was measured:
HBL-100/Dox cells [1] = assay: ROS by H2DCFDA fluorescent staining, HBL-100/Dox; type: cell-based, human; details: MK 1.8 μM, 4 h
Procedure: The DNA marker, termed Hoechst 33342 Ready Flow Reagent, was used as a stock solution (Invitrogen, ThermoFisher Scientific, USA). The mitochondrial marker, LumiTracker Mito TMRE (tetramethylrhodamine, ethyl ester; Lumiprobe, Moscow, Russia), was dissolved in DMSO as 1.0 mM stock solution. The marker of reactive oxygen species, H2DCFDA (Lumiprobe, Moscow, Russia), was dissolved in DMSO as 100.0 μM stock solution. After incubation, the cells were incubated with FBS-free culture medium containing the dye mixture of Hoechst 33342 (final concentration 1.0 μM) and LumiTracker Mito TMRE (final concentration 1.0 μM), or H2DCFDA dye taken alone (final concentration 1.0 μM), for 30 min at 37 °C in darkness. Fluorescence, at 420 nm (Hoechst 33342), at 510 nm (TMRE), and at 575 nm (H2DCFDA), of the test cultures (including controls) was analyzed immediately using a fluorescence microscope CKX 53 (Olympus, Tokyo, Japan). The TMRE fluorescence intensity was quantified using Fiji (ImageJ).

HBL-100 cells = assay: Western blotting of cytochrome c, cleaved caspase-9 and -8, HBL-100; type: cell-based, human; details: 16 h, IC50
Procedure: The supernatant (cytosol fraction) and mitochondrial pellets were then collected, and protein concentration was determined by UV […] using 1–100 μg/mL BSA as standard curve concentrations (UV-2600i spectrophotometer; Shimadzu, Tokyo, Japan).
Then, the same protein amounts (20.0 µg in each lane) were loaded and separated by 4–20% Mini-PROTEAN TGX Stain-Free Protein Gels (Bio-Rad Laboratories, Hercules, CA, USA), followed by transferring onto polyvinylidene difluoride (PVDF) membranes. The membranes were blocked with 1% (w/v) casein in Tris-buffered saline containing 0.1% Tween-20 (TBS-T), and were incubated overnight with primary antibodies (1:1000) of Cytochrome c (D18C7) Rabbit mAb, Cleaved Caspase-9 (Asp330) (E5Z7N) Rabbit mAb, Cleaved Caspase-8 (Asp374) (18C8) Rabbit mAb, and β-Actin (D6A8) Rabbit mAb (Cell Signaling Technology, Danvers, MA, USA) for cytosol and mitohondrial fractions at 4 °C. The next day, the PVDF membranes were washed thrice in TBS-T and incubated with HRP-conjugated secondary antibodies (1:1000) (Cell Signaling Technology, Danvers, MA, USA) for 1 h at RT. Immunoreactive proteins were detected by Clarity Western ECL Substrate (Bio-Rad Laboratories, Hercules, CA, USA) and then analyzed on the ChemiDoc MP Imaging system (Bio-Rad Laboratories, Hercules, CA, USA). The proteins were quantified by densitometry using Image Lab software (version 6.0; Bio-Rad Laboratories, Hercules, CA, USA). To normalize protein expression data, a blot with β-Actin was used.

HEK293 = assay: MTT cell viability assay, HEK293; type: cell-based; details: Homo sapiens
From the text: Blokhin National Medical Research Center of Oncology (the Ministry of Health of the Russian Federation, Moscow).

HBL-100/Dox cells [2] = assay: Cell cycle analysis (DAPI, flow cytometry), HBL-100/Dox; type: cell-based, human; details: for Cell cycle of HBL-100/Dox, G0/G1 / Cell cycle of HBL-100/Dox, G2/M / Cell cycle of HBL-100/Dox, subG0/G1 / Cell cycle of HBL-100/Dox, S-phase: dose = IC50
Procedure: The cells were trypsinized and rinsed with the growth medium. Then, the cells were harvested by centrifugation at 500× g for 3 min, and the supernatant was discarded. The cells were washed with PBS (PanEco, Moscow, Russia) twice and centrifuged under similar conditions. The cells were resuspended in 500 μL of PBS, put into centrifuge tubes and fixed by adding 4.5 mL of 70% ethanol dropwise (on ice). The samples were fixed at 4 °C. Overnight, the fixed cells were centrifugally collected (1000× g, 4 °C, 5 min) and washed again with PBS. The cells were finally resuspended in DAPI with 0.1% Triton X-100 in PBS solution (10 μg/mL, Sigma–Aldrich, St. Louis, MO, USA), and stained for 30 min at room temperature in darkness. For each sample, at least 50,000 cells were analyzed using the CytoFlex S flow cytometer (Beckman Coulter, Brea, CA, USA). Cell cycle populations were quantified from DNA histograms with the FlowJo software (ver. X 10.0.7r2, FlowJo Software, San Jose, CA, USA).

human cancer cell lines = assay: MTT assay, panel of cancer cell lines; details: for IC50: Homo sapiens
Procedure: In this study, the human embryonic kidney cell line HEK293 was used as the non-cancerous cell line.
To investigate the cytotoxic activity of the compounds under study, the MTT colorimetric assay [45] was performed. […] After 72 h, 20 μL of 5 mg/mL solution of MTT (PanEco, Moscow, Russia), in sterile phosphate-buffered saline (PBS; PanEco, Moscow, Russia), was added to each well and further incubated for 4 h. Then, the medium with the compounds was removed, and the formed formazan crystals were dissolved in 100 μL of DMSO. […] The IC50 values were determined from dose-dependent curves, using Prism 6.0 (GraphPad Software, Boston, MA, USA).

P-gp = molecular target: T1, P-gp (Homo sapiens, UniProt P08183); assay: Rhodamine 123 efflux test (P-gp functional activity) in HBL-100/Dox cells; type: cell-based; details: Rh123 efflux, 60 min
T1 construct: endogenous in cells
Procedure: The functional activity of P-gp was evaluated using the previously described method. […] After incubation, the cells were washed twice and divided into several fractions (2.5 × 10^5 cells per point). One fraction was incubated in a pure medium, and the other one was incubated with MK (2.0 μM) added. […] Cell fluorescence was evaluated on CytoFlex S flow cytometer (Beckman Coulter, Brea, CA, USA). The results were analyzed using FlowJo software (ver. X 10.0.7r2, FlowJo Software, San Jose, CA, USA) and were represented as geometric mean fluorescence intensity (gMFI) and MAF coefficient, which were calculated using the following formula: MAF = (Mean (inh.) − Mean (free))/Mean (inh.), where MAF is the MDR activity functional, mean (free) is the mean value of cell fluorescence without inhibitor, and mean (inh.) is the mean value for cell fluorescence with inhibitor.

T1 sequence (P08183 whole entry): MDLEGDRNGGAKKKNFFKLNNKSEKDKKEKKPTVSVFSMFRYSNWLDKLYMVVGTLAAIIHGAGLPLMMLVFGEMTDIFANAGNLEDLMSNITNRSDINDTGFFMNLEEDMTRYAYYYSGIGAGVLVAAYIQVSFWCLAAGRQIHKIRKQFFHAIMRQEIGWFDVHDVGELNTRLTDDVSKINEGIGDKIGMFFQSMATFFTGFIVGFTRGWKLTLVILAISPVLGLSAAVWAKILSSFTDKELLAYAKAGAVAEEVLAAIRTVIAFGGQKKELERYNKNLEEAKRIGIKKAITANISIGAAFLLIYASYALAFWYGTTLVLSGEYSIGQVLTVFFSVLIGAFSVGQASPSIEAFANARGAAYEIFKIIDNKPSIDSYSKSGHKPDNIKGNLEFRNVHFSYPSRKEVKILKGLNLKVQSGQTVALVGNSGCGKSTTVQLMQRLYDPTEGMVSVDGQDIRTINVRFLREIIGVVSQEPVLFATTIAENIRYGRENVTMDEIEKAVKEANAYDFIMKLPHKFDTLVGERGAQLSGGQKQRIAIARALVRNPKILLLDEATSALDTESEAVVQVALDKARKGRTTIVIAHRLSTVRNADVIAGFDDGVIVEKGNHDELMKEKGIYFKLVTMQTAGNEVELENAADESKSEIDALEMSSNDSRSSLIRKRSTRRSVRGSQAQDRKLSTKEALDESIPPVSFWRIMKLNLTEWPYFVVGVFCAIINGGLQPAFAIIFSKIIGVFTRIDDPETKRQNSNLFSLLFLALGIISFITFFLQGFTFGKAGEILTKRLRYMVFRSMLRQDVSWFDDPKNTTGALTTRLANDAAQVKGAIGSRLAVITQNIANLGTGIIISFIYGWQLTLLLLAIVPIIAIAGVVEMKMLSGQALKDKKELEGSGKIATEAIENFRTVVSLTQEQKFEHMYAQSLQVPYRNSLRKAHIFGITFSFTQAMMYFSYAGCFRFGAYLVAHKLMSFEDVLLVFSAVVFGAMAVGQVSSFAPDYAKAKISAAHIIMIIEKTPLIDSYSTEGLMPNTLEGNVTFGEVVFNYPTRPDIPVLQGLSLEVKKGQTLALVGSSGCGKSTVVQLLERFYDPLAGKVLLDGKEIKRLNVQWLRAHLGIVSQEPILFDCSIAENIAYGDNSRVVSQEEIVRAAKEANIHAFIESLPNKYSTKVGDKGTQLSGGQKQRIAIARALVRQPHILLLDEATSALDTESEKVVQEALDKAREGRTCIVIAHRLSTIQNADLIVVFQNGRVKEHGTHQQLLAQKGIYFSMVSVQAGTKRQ

Question: How did the “ROS generation, H2DCFDA staining” value (HBL-100/Dox cells [1]) turn out when `COC(=O)[C@]12CC[C@@H](C(C)C)[C@@H]1[C@H]1CC[C@@H]3[C@@](C)(CCC#N)[C@H](C(=O)C(Br)Br)CC[C@@]3(C)[C@]1(C)CC2` [compound 31, 2-Cyano-24,24-dibromo-4-oxo-3,4-seco-3,23-dinorlupan-28-oic acid methyl ester] was run?
Answer: Its value is “significantly heightened the ROS generation”.

Question: What about the “activation of caspase-8” value (HBL-100 cells) of the same molecule?
Answer: The value was “not observed”.

Question: What about the “activation of caspase-9” value (HBL-100 cells) of the same molecule?
Answer: Its value is “sequential activation of initiator caspase-9”.

Question: And the “cytochrome c release” value (HBL-100 cells)?
Answer: Its value is “provoked the release of cytochrome c from mitochondria to cytosol”.

Question: And the IC50 (HEK293; HEK293, MTT, 72 h of treatment, read-out: IC50 Values (Mean ± SD))?
Answer: The IC50 was 11.5 ± 0.6 µM.

Question: And the IC50 (HEK293; Table S1, HEK293, read-out: IC50 (mean ± SD))?
Answer: The IC50 was 11.5 ± 0.56 µM.

Question: And the “Cell cycle of HBL-100/Dox, G0/G1” value (HBL-100/Dox cells [2]; 12 h)?
Answer: Its value is 50.93±0.43%.

Question: What about the “Cell cycle of HBL-100/Dox, G2/M” value (HBL-100/Dox cells [2]; 12 h) of the same molecule?
Answer: Its value is 18.38±0.34%.

Question: And the “Cell cycle of HBL-100/Dox, subG0/G1” value (HBL-100/Dox cells [2]; 12 h)?
Answer: Its value is 4.84 ± 1.48%.

Question: And the “Cell cycle of HBL-100/Dox, S-phase” value (HBL-100/Dox cells [2]; 12 h, listed as MK)?
Answer: Its value is 30.69 ± 0.99% and 30.69±0.04%.

Question: What about the “Cell cycle of HBL-100/Dox, G0/G1” value (HBL-100/Dox cells [2]; 13 h) of the same molecule?
Answer: The value was 47.82±0.67%.

Question: What about the “Cell cycle of HBL-100/Dox, G2/M” value (HBL-100/Dox cells [2]; 13 h) of the same molecule?
Answer: Its value is 17.42±0.46%.

Question: And the “Cell cycle of HBL-100/Dox, S-phase” value (HBL-100/Dox cells [2]; 13 h)?
Answer: The value was 34.76±0.20%.

Question: What about the “Cell cycle of HBL-100/Dox, subG0/G1” value (HBL-100/Dox cells [2]; 13 h) of the same molecule?
Answer: Its value is 4.89±0.48%.

Question: And the “Cell cycle of HBL-100/Dox, G0/G1” value (HBL-100/Dox cells [2]; 14 h)?
Answer: Its value is 51.68±1.34%.

Question: What about the “Cell cycle of HBL-100/Dox, G2/M” value (HBL-100/Dox cells [2]; 14 h) of the same molecule?
Answer: Its value is 14.54±0.25%.

Question: What about the “Cell cycle of HBL-100/Dox, S-phase” value (HBL-100/Dox cells [2]; 14 h) of the same molecule?
Answer: The value was 33.78±1.08%.

Question: And the “Cell cycle of HBL-100/Dox, subG0/G1” value (HBL-100/Dox cells [2]; 14 h)?
Answer: The value was 4.87±0.60%.

Question: What about the “Cell cycle of HBL-100/Dox, G0/G1” value (HBL-100/Dox cells [2]; 15 h) of the same molecule?
Answer: Its value is 52.12±1.18%.

Question: And the “Cell cycle of HBL-100/Dox, G2/M” value (HBL-100/Dox cells [2]; 15 h)?
Answer: The value was 14.52±1.40%.

Question: What about the “Cell cycle of HBL-100/Dox, S-phase” value (HBL-100/Dox cells [2]; 15 h) of the same molecule?
Answer: The value was 33.36±2.57%.

Question: And the “Cell cycle of HBL-100/Dox, subG0/G1” value (HBL-100/Dox cells [2]; 15 h)?
Answer: The value was 5.06±0.09%.

Question: And the “Cell cycle of HBL-100/Dox, G0/G1” value (HBL-100/Dox cells [2]; 16 h)?
Answer: Its value is 51.84±0.88%.

Question: And the “Cell cycle of HBL-100/Dox, G2/M” value (HBL-100/Dox cells [2]; 16 h)?
Answer: The value was 22.22±1.70%.

Question: And the “Cell cycle of HBL-100/Dox, S-phase” value (HBL-100/Dox cells [2]; 16 h)?
Answer: Its value is 25.94±2.58%.

Question: And the “Cell cycle of HBL-100/Dox, subG0/G1” value (HBL-100/Dox cells [2]; 16 h)?
Answer: Its value is 6.55±0.11%.

Question: And the “Cell cycle of HBL-100/Dox, G0/G1” value (HBL-100/Dox cells [2]; 17 h)?
Answer: The value was 52.16 ± 1.94%.

Question: And the “Cell cycle of HBL-100/Dox, G2/M” value (HBL-100/Dox cells [2]; 17 h)?
Answer: Its value is 19.82±0.60%.

Question: And the “Cell cycle of HBL-100/Dox, S-phase” value (HBL-100/Dox cells [2]; 17 h)?
Answer: Its value is 28.02±1.34%.

Question: And the “Cell cycle of HBL-100/Dox, subG0/G1” value (HBL-100/Dox cells [2]; 17 h)?
Answer: The value was 9.08±0.39%.

Question: What about the “Cell cycle of HBL-100/Dox, G0/G1” value (HBL-100/Dox cells [2]; 18 h) of the same molecule?
Answer: The value was 57.26±1.18%.

Question: And the “Cell cycle of HBL-100/Dox, G2/M” value (HBL-100/Dox cells [2]; 18 h)?
Answer: The value was 25.55±1.12%.

Question: What about the “Cell cycle of HBL-100/Dox, S-phase” value (HBL-100/Dox cells [2]; 18 h) of the same molecule?
Answer: Its value is 17.19±2.31%.

Question: And the “Cell cycle of HBL-100/Dox, subG0/G1” value (HBL-100/Dox cells [2]; 18 h)?
Answer: The value was 10.42±0.98%.

Question: What about the “Cell cycle of HBL-100/Dox, G0/G1” value (HBL-100/Dox cells [2]; 24 h) of the same molecule?
Answer: The value was 64.14 ± 0.55%.

Question: And the “Cell cycle of HBL-100/Dox, S-phase” value (HBL-100/Dox cells [2]; 24 h)?
Answer: Its value is 8.99 ± 0.42%.

Question: What about the “Cell cycle of HBL-100/Dox, G2/M” value (HBL-100/Dox cells [2]; 24 h, listed as MK) of the same molecule?
Answer: Its value is 26.87 ± 1.13% and 26.87±0.13%.

Question: What about the “Cell cycle of HBL-100/Dox, subG0/G1” value (HBL-100/Dox cells [2]; 24 h, listed as MK) of the same molecule?
Answer: The value was 13.47 ± 2.44% and 13.47±0.18%.

Question: And the “effect on cell cycle progression” value (HBL-100/Dox cells [2]; HBL-100/Dox (resistant) cells, 12-24 h, IC50)?
Answer: Its value is “blocked or slowed down the cell cycle progression through the G0/G1 phase”.

Question: What about the IC50 (human cancer cell lines; read-out: IC50 values (range)) of the same molecule?
Answer: Its IC50 is 0.7 to 7.1 µM.

Question: And the IC50 (human cancer cell lines; read-out: cytotoxicity (IC50 range))?
Answer: The IC50 was 0.7 to 16.6 µM.

Question: What about the “cytotoxicity in the screening studies” value (human cancer cell lines; MTT screening, Table S1) of the same molecule?
Answer: The value was “pronounced cytotoxic effect”.

Question: What about the “SI (range)” value (human cancer cell lines; against HBL-100/Dox, HBL-100, and RD TE32 cells) of the same molecule?
Answer: The value was 6.39–16.43.

Question: And the “P-gp inhibitory activity” value (P-gp)?
Answer: Its value is “extremely low P-gp inhibitory activity”.

Question: What about the “MAF (MDR activity functional)” value (P-gp; MK 2 μM, verapamil 30 μM, listed as MK) of the same molecule?
Answer: Its value is 0.22±0.1 and 0.22.
